# Assay results reported in patent publication US9618513B2, “Compositions and methods for detecting and treating colorectal cancer” (The Regents of the University of Michigan, priority 2014, dated 2017).
# Legend:
# Assay type in all cases: cell-based, human
# colon cancer cells = assay: Colon cancer cell proliferation (Ki67 FACS, H3 thymidine incorporation, cell counting); conditions: H3 thymidine incorporation
# From the text: A. GSEA analysis identifies proliferation pathways have positive correlation with IL-22. B. Cell proliferation maker Ki67 was detected by FACS. C. H^3 Thymidine Incorporation was used to detect the function of IL-22 in cell proliferation. D. Cell number was counted after stimulated with IL-22. E. Cells isolated from colon cancer tissue (Tumor cells and Leukocytes) were stimulated with a-CD3 and […] for 3 days, and supernatant mixed with or without anti-IL-22 antibody was co-cultured with DLD1 cells for 24 h to test cell proliferation. F. Cell cyclin-dependent kinase and kinase inhibitors were analyzed by Real-Time PCR.
# A, C. Cell proliferation was analyzed using H^3 Thymidine Incorporation. B. The level of total H3K79m2 and H3K27me3 was measured by Western Blot. D. PcG proteins of EZH2, EED, SUZ12 was increased with IL-22(20 ng/ml) treatment. E. EZH2, SUZ12 and EED was detected by Western Blot after IL-22 treated for 24 h or 48 h. F. EZH2 inhibitor DZNep reduced cell proliferation. G.H. The efficiency of EZH2 and SUZ12 knock down was tested by Western Blot. I.J. Cell proliferation was analyzed using H^3 Thymidine Incorporation after knock down of EZH2 and SUZ12. K.L. Relative expression of cyclin-dependent kinase inhibitors (p16 and p18) in shEZH2, shSUZ12 and Dznep treated cells after IL-22 treatment. M. The level of H3K27me3 in the promoter of p16 and p18 was analyzed by ChIP assay.
# A. The protein level of phosphorylated STAT3, STAT1 and STATS were activated by IL-22. B. The effect of STAT3 knock down. C. The effect of IL-22 on cell proliferation was analyzed using H^3 Thymidine Incorporation in Stat3 knock down cells. D. Knock down of STAT3 reduced the expression of EZH2 and SUZ12. E. Based on the ENCODE STAT3-ChIP-Seq data base, STAT3 occupancy on the promoter areas of SUZ12 and EED is shown. F. SUZ12/EED DNA was detected by ChIP assay using an antibody against STAT3, c-fos was used as a positive control.
# (§1) Three primary colon cancer cell lines (SB, WR, JR) were established from fresh colon tissues. These primary colon cancer cells and DLD1 (ATCC) were studied. Colon cancer cells were treated with recombinant IL-22 (R&D) for different time points. The EZH2 inhibitor DZNep was added in conventional or sphere culture (see, e.g., Kryczek, I., et al., (2012) International journal of cancer 130, 29-39). Tumor cell sphere formation and gene expression were examined (see, e.g., Kryczek, I., et al., (2012) International journal of cancer 130, 29-39).
# [1] = test system: primary colon cancer cell line SBCA; assay: Proliferation of primary colon cancer cell line SBCA
# Experimental: FIG. 21A-E A. Dot1L/H3K79me2 inhibitor EZP004777 (10 uM) had no effect on SUZ12 expression but reduce Sox2. B. EZP004777 had no effect on primary colon cancer cell line SBCA. C. EZH2 inhibitor DZNep reduced SBCA cell proliferation. D. SUZ12 knockdown reduced H3K27m3 level. E. Effect of I1-22 on tumor sphere assay was analyzed in shEZH2, shSUZ12 and Dznep treated cells.
# as §1
# CD4+ T cells = assay: Transwell migration assay; conditions: CCL-20 5 ng/ml in lower chamber, 4 h
# Experimental: (A, B) IL-22 is expressed by immune cells in colon cancer tissues. Different cell populations were sorted from colon cancer tissues and IL-22 expression was measured by real time PCR. (5-10 donors, P<0.05). (C) IL-22 is spontaneously released by different immune cell populations in colon cancer tissues. Different CD45^+ immune subsets (10^6/ml) were sorted from colon cancer and blood, and cultured for 12 hours. IL-22 was detected via ELISA. (n=5, *P<0.05). (D, E) IL-22 is expressed by activated CD4^+ T cells in colon cancer tissues. CD45^+ subsets (10^6/ml) were sorted from colon cancer and blood, and were activated with anti-CD3 and anti-CD28 for 2 days. IL-22 was detected with ELISA (D) or intracellular staining (E). (n=5, *P<0.05). (F, G) CCR6^+CD4^+ T cells express IL-22. CD4^+ T cells were sorted based on CCR6 expression and activated with anti-CD3 and anti-CD28 and antigen presenting cells. IL-22 mRNA was detected by real time PCR (F) and protein by ELISA (G). (5 different donors, P<0.05). […] IL-22 expression was quantified with real-time PCR in the migrated and non-migrated cells. Results are expressed as the mean relative expression (H). The phenotype of migrated cells, non-migrated cells and control (before migration) was analyzed by FACS (I). […] The mRNA of stem cell core genes was detected by real-time PCR after 6 hours (K) and ALDH activity was detected by FACS after 48 hours (L). […]
Molecule,colon cancer cell proliferation induced by IL-22 (colon cancer cells),SBCA cell proliferation [1],T cell migration (CD4+ T cells)
"Nc1nccc2c1ncn2C1C=C(CO)C(O)C1O (stereo not drawn) [DZNep, reference compound]",significantly blocked,reduced,–
"CCL20: the ligand for CCR6; CCL-20 (5 ng/ml, R&D)",–,–,efficiently migrated
